Results reported in patent US10106797B2, “Methods for suppressing adipocyte differentiation” (SEOUL NATIONAL UNIVERSITY R&DB FOUNDATION, priority 2013, dated 2018).

Key:
3T3-L1 cells = test: Adipocyte differentiation of 3T3-L1 cells, Oil-red O staining; type: cell-based, mouse; settings: for adipose differentiation: amount dependent
Experimental: (§1) HEK293 (human embryonic kidney) cells were obtained from the American Type Culture Collection (Manassas, Va.). 3T3-L1 and 3T3-F442A preadipocytes were kindly given by Dr. Jae-Woo Kim (Yonsei University, Seoul, Korea). Cells were cultured in DMEM supplemented with 10% fetal bovine serum (FBS). Differentiation of 3T3-L1 cells was induced with 1 μM dexamethasone, 500 μM 3-isobutyl-a-methylxanthine, and 5 μg/ml of insulin (DMI), which is designated DMI. From 2 to 8 days after DMI treatment, cells were maintained in DMEM containing 10% FBS and 1 μg/ml of insulin and the medium was changed every other day. Adipocyte differentiation of hADSCs was induced with DMI and 200 μM indomethacin in α-MEM supplemented with 10% FBS. Cells were incubated in 5% CO2 and 20% O2 at 37° C.
Adipocytes were fixed with 3.7% of formalin and stained with 0.3% Oil-red-O solution (Sigma-Aldrich) dissolved in isopropanol. 0.5% Oil-red-O (Sigma-Aldrich) was dissolved in isopropanol. Oil-red-O stock solution and H2O were mixed at a ratio of 6:4 and filtered. Then 60% Oil-red-O stock solution was incubated with the cells for 1 h and washed with distilled water and scanned for image.

C/EBP-β [1] = test: Quantitative RT-PCR of C/EBP-β mRNA in 3T3-L1 cells; type: cell-based, mouse
Experimental: as §1
(§2) Total RNAs were isolated from cultured cells using TRIzol® (Invitrogen). The EasyScript™ cDNA Synthesis Kit (Applied Biological Materials Inc., Richmond, Canada) was used to synthesize cDNAs. The level of each cDNA was relatively quantified by being divided by the 18S rRNA level in the corresponding sample.

CD36 = test: Quantitative RT-PCR of CD36 mRNA in 3T3-L1 cells; type: cell-based, mouse
Experimental: as §1, §2

PPAR-v [2] = test: Quantitative RT-PCR of PPAR-v mRNA in 3T3-L1 cells; type: cell-based, mouse
Experimental: as §1, §2

PPAR-v [3] = test: Western blotting of PPAR-v protein expression in 3T3-L1 cells; type: cell-based, mouse
Experimental: as §1
(§3) Proteins in cell lysates were electrophoresed on SDS-polyacrylamide gels and transferred to Immobilon-P membranes (Millipore, Billerica, Mass.). Membranes were preincubated with 5% skim milk in TTBS (Tris-buffered saline containing 0.1% Tween 20) for 30 min and incubated overnight with primary antibody diluted 1:500 to 1:3000 in the TTBS. The membranes were further incubated with a horseradish peroxidase conjugated secondary antibody for 1 h and visualized using Pierce ECL Plus western blotting substrate according to the manufacturer's instruction (Thermo Fisher Scientific, Waltham, Mass.).

FABP4 = test: Quantitative RT-PCR of FABP4 mRNA in 3T3-L1 cells; type: cell-based, mouse
Experimental: as §1, §2

PPAR-v [4] = test: Ubiquitination of PPAR-v, western blotting; type: cell-based; settings: neddylation inhibited using siNEDD8; FIG. 3E
Experimental: as §3
To precipitate HA-tagged proteins, transfected cells were lysed in a buffer containing 5 mM EDTA, 50 mM Tris-Cl, 100 mM NaCl, 0.1% NP-40, and the protease inhibitor cocktail (Sigma-Aldrich). Cell lysates (1 mg proteins) were incubated with EZview™ anti-HA affinity beads sequentially incubated with a primary antibody (10 μg/mL) and protein A/G-Sepharose beads (GE Healthcare, Uppsala, Sweden) at 4° C. for 4 h. Pull down proteins were eluted in a 2×SDS denaturing buffer and subjected to Western blotting as described above. For HA-bead immunoprecipitation, 1 mg of protein was incubated with 10 ul of HA-bead at 4° C. for 4 h and washed. Then proteins were eluted in a 2×SDS denaturing buffer and electrophoresed in a SDS-PAGE gel and subjected to Western blotting as described above.

C/EBP-β [5] = test: Western blotting of C/EBP-β protein expression in 3T3-L1 cells; type: cell-based, mouse; settings: FIG. 1E
Experimental: as §1, §3

[6] = 3T3-L1 cells treated with 0.5 μM MLN4924 before the differentiation, 0, 2, 4, 6, 8 days, FIG. 2B
[7] = siNEDD8 knock down, PCR at 0, 2, 4, 6, and 8 days after start of differentiation, FIG. 1F
[8] = knock down after the cells were induced to differentiation, FIG. 1D

Compound: COc1ccc(C2=NC(c3ccc(Cl)cc3)C(c3ccc(Cl)cc3)N2C(=O)N2CCNC(=O)C2)c(OC(C)C)c1 (stereo not drawn) [nutlin-3, 4-[4,5-Bis(4-chlorophenyl)-2-(2-isopropoxy-4-methoxy-phenyl)-4,5-dihydro-imidazole-1-carbonyl]-piperazin-2-one, reference compound]
- adipose differentiation (3T3-L1 cells; nutlin-3 10 and 20 μM, before and after differentiation was induced, FIG. 5D): suppressed

Compound: NS(=O)(=O)OC[C@@H]1C[C@@H](n2ccc3c(N[C@H]4CCc5ccccc54)ncnc32)C[C@@H]1O [MLN4924, reference compound]
- C/EBP-β at the mRNA level (C/EBP-β [1]; [6]): decreased
- CD36 at the mRNA level (CD36; [6]): decreased
- PPAR-v at the mRNA level (PPAR-v [2]; [6]): decreased
- expression of PPAR-v protein (PPAR-v [3]; 3T3-L1 cells treated with MLN4924 after the differentiation was induced, FIG. 2A): suppresses
- differentiation of 3T3L1 cells into adipocytes (3T3-L1 cells; MLN4924 0.1 and 0.5 μM, before and after differentiation was induced, Oil-red O, FIG. 2A): suppressed
- FABP4 at the mRNA level (FABP4; [6]): decreased

Compound: siNEDD8: siRNA against NEDD8; Table 1 siNEDD8 is human, SEQ ID NO: 1; text does not say which sequence was used in 3T3-L1 (CAGACAAGGUGGAGCGAAUCAAGGA; other strand not given here)
- mRNA expression level of C/EBP-β (C/EBP-β [1]; [7]): decreased
- mRNA expression level of CD36 (CD36; [7]): decreased
- mRNA expression level of PPAR-v (PPAR-v [2]; [7]): decreased
- ubiquitination of PPAR-v (PPAR-v [4]): increased
- expression of PPAR-v (PPAR-v [3]; [8]): suppressed
- expression of PPAR-v (PPAR-v [3]; knock down before induction, 0, 2, 4, 6 and 8 days during differentiation, compared to control, time dependent, FIG. 1E): decreased
- adipogenesis (3T3-L1 cells; [8]): suppressed
- expression of C/EBP-β (C/EBP-β [5]; 0, 2, 4, 8, 16, 24 h after the initiation of differentiation): decreased
- expression of C/EBP-β (C/EBP-β [5]; knock down before induction, 0, 2, 4, 6 and 8 days during differentiation, compared to control, time dependent): decreased
- mRNA expression level of FABP4 (FABP4; [7]): decreased

Compound: siMDM2: MDM2 siRNA used in 3T3-L1; probably the mouse one, SEQ ID NO: 8, 5′-GCAAUGAUCUACAGAAAUUUAGUGG-3′ (other strand not given here)
- adipose differentiation (3T3-L1 cells; 3T3-L1 transfected with siMDM2 10, 20 or 50 nM, differentiation induced after 2 days, FIG. 5C): suppressed
